# Assays:
# CaMKI(h) = target: T1, CaMKI(h) (Homo sapiens, UniProt Q14012); assay: Eurofins kinase panel; type: biochemical; details: read-out: Inhibition rate (%)
# T1 construct: purchased Eurofins (KinaseProfiler)
# CDK12/cyclinK(h) = target: T2, CDK12/cyclinK(h) (Homo sapiens, UniProt Q9NYV4); assay: Eurofins kinase panel; type: biochemical; details: read-out: Inhibition rate (%)
# T2 construct: purchased Eurofins (KinaseProfiler)
# cKit(h) = target: T3, cKit(h) (Homo sapiens, UniProt P10721); assay: Eurofins kinase panel; type: biochemical; details: read-out: Inhibition rate (%)
# T3 construct: purchased Eurofins (KinaseProfiler)
# EphA2(h) = target: T4, EphA2(h) (Homo sapiens, UniProt P29317); assay: Eurofins kinase panel; type: biochemical; details: read-out: Inhibition rate (%)
# T4 construct: purchased Eurofins (KinaseProfiler)
# GSK3β(h) = target: T5, GSK3β(h) (Homo sapiens, UniProt P49841); assay: Eurofins kinase panel; type: biochemical; details: read-out: Inhibition rate (%)
# T5 construct: purchased Eurofins (KinaseProfiler)
# HIPK1(h) = target: T6, HIPK1(h) (Homo sapiens, UniProt Q86Z02); assay: Eurofins kinase panel; type: biochemical; details: read-out: Inhibition rate (%)
# T6 construct: purchased Eurofins (KinaseProfiler)
# ICK(h) = target: T7, ICK(h) (Homo sapiens, UniProt Q9UPZ9); assay: Eurofins kinase panel; type: biochemical; details: read-out: Inhibition rate (%)
# T7 construct: purchased Eurofins (KinaseProfiler)
# T7 sequence (Q9UPZ9 1-632): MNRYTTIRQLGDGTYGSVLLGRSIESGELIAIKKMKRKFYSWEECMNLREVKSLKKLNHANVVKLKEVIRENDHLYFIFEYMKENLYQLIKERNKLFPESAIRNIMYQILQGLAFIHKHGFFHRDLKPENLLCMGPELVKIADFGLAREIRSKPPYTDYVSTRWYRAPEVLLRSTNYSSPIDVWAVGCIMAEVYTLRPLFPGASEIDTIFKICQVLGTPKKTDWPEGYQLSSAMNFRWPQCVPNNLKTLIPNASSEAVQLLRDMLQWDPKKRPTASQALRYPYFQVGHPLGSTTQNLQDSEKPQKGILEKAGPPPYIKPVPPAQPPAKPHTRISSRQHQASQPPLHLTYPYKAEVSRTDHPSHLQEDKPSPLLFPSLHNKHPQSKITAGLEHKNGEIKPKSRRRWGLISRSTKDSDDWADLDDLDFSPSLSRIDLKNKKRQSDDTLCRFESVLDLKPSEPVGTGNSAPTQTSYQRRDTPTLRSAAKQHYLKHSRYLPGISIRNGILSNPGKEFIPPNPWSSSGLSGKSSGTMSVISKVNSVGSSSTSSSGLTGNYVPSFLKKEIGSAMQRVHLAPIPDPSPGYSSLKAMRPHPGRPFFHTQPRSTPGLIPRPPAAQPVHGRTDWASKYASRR
# Lyn(h) = target: T8, Lyn(h) (Homo sapiens, UniProt P07948); assay: Eurofins kinase panel; type: biochemical; details: read-out: Inhibition rate (%)
# T8 construct: purchased Eurofins (KinaseProfiler)
# PASK(h) = target: T9, PASK(h) (Homo sapiens, UniProt Q96RG2); assay: Eurofins kinase panel; type: biochemical; details: read-out: Inhibition rate (%)
# T9 construct: purchased Eurofins (KinaseProfiler)
# PhKγ2(h) = target: T10, PhKγ2(h) (Homo sapiens, UniProt P15735); assay: Eurofins kinase panel; type: biochemical; details: read-out: Inhibition rate (%)
# T10 construct: purchased Eurofins (KinaseProfiler)
# T10 sequence (P15735 1-406): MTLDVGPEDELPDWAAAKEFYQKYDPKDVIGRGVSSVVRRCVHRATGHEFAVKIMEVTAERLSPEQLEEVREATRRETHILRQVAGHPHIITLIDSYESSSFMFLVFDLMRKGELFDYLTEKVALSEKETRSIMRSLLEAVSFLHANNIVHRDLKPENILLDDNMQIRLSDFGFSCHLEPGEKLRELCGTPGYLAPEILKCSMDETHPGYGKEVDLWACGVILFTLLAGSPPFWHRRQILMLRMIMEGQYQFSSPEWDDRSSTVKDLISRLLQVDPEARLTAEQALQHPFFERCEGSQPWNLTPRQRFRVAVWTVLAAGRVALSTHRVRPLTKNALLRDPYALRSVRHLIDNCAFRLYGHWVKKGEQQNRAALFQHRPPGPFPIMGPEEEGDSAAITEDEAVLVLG
# SAPK2a(T106M)(h) = target: T11, SAPK2a(T106M)(h) (Homo sapiens, UniProt Q16539, T106M); assay: Eurofins kinase panel; type: biochemical; details: read-out: Inhibition rate (%)
# T11 construct: purchased Eurofins (KinaseProfiler)
# TSSK4(h) = target: T12, TSSK4(h) (Homo sapiens, UniProt Q6SA08); assay: Eurofins kinase panel; type: biochemical; details: read-out: Inhibition rate (%)
# T12 construct: purchased Eurofins (KinaseProfiler)
# T12 sequence (Q6SA08 1-328): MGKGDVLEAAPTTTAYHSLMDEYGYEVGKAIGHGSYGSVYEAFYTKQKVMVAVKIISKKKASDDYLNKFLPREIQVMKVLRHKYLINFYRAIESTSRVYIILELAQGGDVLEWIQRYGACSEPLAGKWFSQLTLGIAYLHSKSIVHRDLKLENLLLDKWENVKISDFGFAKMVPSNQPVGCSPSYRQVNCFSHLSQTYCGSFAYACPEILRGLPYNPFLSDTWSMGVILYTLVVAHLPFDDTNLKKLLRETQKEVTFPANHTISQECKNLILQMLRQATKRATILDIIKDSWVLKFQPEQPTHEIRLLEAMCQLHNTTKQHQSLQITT
# VEGFR2 (KDR) = target: T13, VEGFR2 (KDR) (Homo sapiens, UniProt P35968); assay: Kinase inhibition assay (ELISA); type: biochemical
# T13 construct: purchased Eurofins (Fremont, United States)
# PBMC (CSF-2) = assay: Macrophage survival (CCK-8); type: cell-based; details: Homo sapiens, 168 h, 7 days
# Description: Murine bone marrow-derived macrophages (BMDMs) and PBMCs were used for cell viability studies. BMDMs were harvested by flushing the tibias and femurs of 6- to 8-week-old C57BL/6 mice and depleting red blood cells (RBCs) by RBC lysis (Biogems). For BMDM survival, the cells were cultured for 7 days in RPMI 1640 containing 10% fetal bovine serum (FBS), 100 U/mL penicillin, 100 μg/mL streptomycin and 100 ng/mL mouse CSF-1 (or CSF-2) with or without the tested compounds. PBMCs were obtained from HemaCare and cultured for 7 days in RPMI 1640 containing 10% fetal bovine serum (FBS), 100 U/mL penicillin, 100 μg/mL streptomycin and 100 ng/mL human CSF-1 (or CSF-2) with or without the tested compounds. Cell viability was measured using the CCK-8 assay. For IL-4/IL-13-induced macrophage survival analysis, viable cells were counted by trypan blue exclusion.
# T3 sequence (P10721 26-976): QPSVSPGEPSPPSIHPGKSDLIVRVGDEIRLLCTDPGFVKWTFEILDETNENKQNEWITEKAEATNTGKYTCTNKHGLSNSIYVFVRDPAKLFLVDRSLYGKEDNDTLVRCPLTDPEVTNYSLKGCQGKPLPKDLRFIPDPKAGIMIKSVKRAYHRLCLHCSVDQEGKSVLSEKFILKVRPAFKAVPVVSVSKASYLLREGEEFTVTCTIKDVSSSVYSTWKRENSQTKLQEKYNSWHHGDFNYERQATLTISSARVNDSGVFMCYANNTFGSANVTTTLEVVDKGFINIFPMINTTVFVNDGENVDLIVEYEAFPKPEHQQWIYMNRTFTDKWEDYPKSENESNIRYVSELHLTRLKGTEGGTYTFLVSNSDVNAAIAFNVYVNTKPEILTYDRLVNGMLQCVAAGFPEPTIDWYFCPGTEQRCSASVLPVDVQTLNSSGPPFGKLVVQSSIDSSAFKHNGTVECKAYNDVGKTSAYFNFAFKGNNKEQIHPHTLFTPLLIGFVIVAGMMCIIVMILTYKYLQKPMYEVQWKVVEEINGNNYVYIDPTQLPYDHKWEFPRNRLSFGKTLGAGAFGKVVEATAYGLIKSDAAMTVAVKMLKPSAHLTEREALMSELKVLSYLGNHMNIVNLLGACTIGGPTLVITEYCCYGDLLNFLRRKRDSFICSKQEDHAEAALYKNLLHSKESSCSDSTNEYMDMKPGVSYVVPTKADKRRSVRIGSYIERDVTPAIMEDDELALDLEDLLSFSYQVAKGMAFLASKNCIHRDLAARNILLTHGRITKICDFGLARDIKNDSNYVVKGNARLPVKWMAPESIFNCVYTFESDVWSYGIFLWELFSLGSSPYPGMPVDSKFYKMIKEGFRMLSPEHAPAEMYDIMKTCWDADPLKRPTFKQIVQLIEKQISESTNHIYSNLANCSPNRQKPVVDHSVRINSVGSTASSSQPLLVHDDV
# T2 sequence (Q9NYV4 whole entry): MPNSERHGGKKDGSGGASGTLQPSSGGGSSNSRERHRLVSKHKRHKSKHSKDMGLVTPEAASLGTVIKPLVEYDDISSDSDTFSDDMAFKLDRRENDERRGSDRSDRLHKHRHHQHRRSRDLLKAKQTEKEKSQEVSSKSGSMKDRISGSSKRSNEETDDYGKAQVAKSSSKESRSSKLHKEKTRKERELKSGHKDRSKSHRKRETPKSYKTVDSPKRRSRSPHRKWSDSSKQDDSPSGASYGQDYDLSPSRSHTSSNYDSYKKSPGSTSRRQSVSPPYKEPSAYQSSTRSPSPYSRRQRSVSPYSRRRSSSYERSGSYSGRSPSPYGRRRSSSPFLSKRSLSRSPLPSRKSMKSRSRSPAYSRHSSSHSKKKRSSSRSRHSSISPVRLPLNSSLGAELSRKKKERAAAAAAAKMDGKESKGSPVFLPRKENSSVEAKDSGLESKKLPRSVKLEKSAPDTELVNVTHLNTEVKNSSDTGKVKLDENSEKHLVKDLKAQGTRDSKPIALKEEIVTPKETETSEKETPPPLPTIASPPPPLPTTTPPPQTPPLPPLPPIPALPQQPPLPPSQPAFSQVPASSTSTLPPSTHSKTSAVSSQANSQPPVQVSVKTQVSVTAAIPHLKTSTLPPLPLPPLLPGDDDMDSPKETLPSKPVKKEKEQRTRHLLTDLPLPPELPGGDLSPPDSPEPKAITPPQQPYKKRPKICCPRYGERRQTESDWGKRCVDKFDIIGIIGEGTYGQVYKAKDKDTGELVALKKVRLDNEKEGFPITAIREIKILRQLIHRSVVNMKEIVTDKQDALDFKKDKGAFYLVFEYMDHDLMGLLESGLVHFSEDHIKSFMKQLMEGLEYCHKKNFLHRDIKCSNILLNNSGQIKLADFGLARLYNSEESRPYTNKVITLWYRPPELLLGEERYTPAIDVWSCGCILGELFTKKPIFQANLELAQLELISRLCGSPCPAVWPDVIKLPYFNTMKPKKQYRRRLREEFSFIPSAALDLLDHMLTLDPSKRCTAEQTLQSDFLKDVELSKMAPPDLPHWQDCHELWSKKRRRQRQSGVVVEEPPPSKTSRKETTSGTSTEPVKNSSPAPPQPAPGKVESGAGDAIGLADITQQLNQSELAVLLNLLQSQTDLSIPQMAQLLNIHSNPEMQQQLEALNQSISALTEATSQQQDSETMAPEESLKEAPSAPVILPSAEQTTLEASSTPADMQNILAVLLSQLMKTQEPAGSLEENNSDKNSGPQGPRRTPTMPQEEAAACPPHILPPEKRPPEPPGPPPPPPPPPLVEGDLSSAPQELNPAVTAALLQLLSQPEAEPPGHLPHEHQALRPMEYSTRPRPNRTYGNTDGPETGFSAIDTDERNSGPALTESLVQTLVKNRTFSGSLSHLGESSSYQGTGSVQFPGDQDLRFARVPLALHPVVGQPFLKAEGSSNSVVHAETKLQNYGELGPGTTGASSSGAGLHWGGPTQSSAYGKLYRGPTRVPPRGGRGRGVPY
# T2 sequence (O75909 whole entry partner): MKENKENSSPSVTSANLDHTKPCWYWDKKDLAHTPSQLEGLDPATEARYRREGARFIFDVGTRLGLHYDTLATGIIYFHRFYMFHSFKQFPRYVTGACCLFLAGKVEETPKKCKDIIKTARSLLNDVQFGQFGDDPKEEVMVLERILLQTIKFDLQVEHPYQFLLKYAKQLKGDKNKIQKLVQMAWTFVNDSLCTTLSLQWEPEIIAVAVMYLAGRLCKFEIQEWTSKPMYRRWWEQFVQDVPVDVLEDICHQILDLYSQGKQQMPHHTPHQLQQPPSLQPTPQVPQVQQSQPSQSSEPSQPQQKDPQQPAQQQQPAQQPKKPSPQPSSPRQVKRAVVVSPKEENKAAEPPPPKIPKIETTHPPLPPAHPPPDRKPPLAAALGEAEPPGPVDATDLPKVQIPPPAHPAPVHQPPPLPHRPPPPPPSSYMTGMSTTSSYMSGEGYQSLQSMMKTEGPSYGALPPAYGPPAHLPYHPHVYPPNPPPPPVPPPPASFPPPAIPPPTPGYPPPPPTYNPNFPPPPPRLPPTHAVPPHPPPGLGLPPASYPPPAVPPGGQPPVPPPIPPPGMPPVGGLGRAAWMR
# T1 sequence (Q14012 whole entry): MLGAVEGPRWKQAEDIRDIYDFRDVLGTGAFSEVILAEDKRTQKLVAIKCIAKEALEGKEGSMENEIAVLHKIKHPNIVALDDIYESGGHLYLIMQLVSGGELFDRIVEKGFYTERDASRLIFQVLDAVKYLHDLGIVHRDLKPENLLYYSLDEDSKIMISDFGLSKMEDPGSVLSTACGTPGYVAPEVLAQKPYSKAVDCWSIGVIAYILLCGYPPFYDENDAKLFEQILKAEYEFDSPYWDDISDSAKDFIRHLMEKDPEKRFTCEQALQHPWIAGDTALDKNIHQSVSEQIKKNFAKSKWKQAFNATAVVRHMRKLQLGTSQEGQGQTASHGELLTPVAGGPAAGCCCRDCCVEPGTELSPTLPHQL
# T8 sequence (P07948 whole entry): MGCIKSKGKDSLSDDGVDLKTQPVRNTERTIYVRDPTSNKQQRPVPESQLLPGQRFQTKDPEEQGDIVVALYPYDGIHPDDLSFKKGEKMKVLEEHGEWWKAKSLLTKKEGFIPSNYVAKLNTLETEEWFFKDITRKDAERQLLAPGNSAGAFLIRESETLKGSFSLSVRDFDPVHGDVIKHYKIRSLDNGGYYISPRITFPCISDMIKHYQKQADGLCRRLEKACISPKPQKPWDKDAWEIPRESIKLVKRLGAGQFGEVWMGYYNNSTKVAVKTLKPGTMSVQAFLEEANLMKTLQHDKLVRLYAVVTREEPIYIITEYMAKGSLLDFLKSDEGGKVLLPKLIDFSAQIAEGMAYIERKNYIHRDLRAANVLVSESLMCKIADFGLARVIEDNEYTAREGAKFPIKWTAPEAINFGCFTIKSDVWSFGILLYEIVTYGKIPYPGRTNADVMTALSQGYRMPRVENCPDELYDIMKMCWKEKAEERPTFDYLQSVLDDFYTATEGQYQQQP
# T5 sequence (P49841 whole entry): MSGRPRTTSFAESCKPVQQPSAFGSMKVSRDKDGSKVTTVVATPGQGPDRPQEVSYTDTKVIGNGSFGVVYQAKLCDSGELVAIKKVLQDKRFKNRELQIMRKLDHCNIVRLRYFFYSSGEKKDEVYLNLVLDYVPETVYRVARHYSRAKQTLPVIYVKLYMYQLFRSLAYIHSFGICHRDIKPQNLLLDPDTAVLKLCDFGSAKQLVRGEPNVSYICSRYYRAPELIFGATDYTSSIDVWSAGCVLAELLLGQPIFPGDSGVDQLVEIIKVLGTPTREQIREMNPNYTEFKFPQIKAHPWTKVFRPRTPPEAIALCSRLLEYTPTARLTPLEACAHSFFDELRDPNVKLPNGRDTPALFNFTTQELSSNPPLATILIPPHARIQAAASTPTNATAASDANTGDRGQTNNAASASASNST
# T11 sequence (Q16539 whole entry T106M): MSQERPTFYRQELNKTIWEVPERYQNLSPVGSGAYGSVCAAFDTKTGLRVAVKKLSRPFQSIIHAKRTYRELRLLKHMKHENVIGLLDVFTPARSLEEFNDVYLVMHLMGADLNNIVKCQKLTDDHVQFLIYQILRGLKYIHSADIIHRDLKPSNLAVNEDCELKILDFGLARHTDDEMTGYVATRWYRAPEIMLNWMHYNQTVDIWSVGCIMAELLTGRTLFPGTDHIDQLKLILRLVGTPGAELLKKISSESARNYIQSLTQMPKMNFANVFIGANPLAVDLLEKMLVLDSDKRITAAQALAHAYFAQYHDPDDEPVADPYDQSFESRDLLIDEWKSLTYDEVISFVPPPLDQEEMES
smiles,measurement,setting,value
COc1cc(OC)c(Cl)c(-c2ccc3c(NC(=O)c4ccc(N5CCNC(C)(C)C5)cc4)n[nH]c3n2)c1Cl [3D185],inhibition at 0.01 µM,CaMKI(h); 10 nM,11%
same,inhibition at 0.1 µM,CaMKI(h); 100 nM,14%
same,inhibition at 1 µM,CaMKI(h); 1000 nM,64%
same,inhibition at 0.01 µM,CDK12/cyclinK(h); 10 nM,-6%
same,inhibition at 0.1 µM,CDK12/cyclinK(h); 100 nM,4%
same,inhibition at 1 µM,CDK12/cyclinK(h); 1000 nM,7%
same,inhibition at 0.01 µM,cKit(h); 10 nM,19%
same,inhibition at 0.1 µM,cKit(h); 100 nM,35%
same,inhibition at 1 µM,cKit(h); 1000 nM,76%
same,inhibition at 0.01 µM,EphA2(h); 10 nM,13%
same,inhibition at 0.1 µM,EphA2(h); 100 nM,24%
same,inhibition at 1 µM,EphA2(h); 1000 nM,73%
same,inhibition at 0.01 µM,GSK3β(h); 10 nM,0%
same,inhibition at 0.1 µM,GSK3β(h); 100 nM,5%
same,inhibition at 1 µM,GSK3β(h); 1000 nM,-5%
same,inhibition at 0.01 µM,HIPK1(h); 10 nM,-3%
same,inhibition at 0.1 µM,HIPK1(h); 100 nM,4%
same,inhibition at 1 µM,HIPK1(h); 1000 nM,10%
same,inhibition at 0.01 µM,ICK(h); 10 nM,-10%
same,inhibition at 0.1 µM,ICK(h); 100 nM,-5%
same,inhibition at 1 µM,ICK(h); 1000 nM,4%
same,inhibition at 0.01 µM,Lyn(h); 10 nM,8%
same,inhibition at 0.1 µM,Lyn(h); 100 nM,81%
same,inhibition at 1 µM,Lyn(h); 1000 nM,98%
same,inhibition at 0.01 µM,PASK(h); 10 nM,-15%
same,inhibition at 0.1 µM,PASK(h); 100 nM,1%
same,inhibition at 1 µM,PASK(h); 1000 nM,10%
same,inhibition at 0.01 µM,PhKγ2(h); 10 nM,12%
same,inhibition at 0.1 µM,PhKγ2(h); 100 nM,-8%
same,inhibition at 1 µM,PhKγ2(h); 1000 nM,-3%
same,inhibition at 0.01 µM,SAPK2a(T106M)(h); 10 nM,0%
same,inhibition at 0.1 µM,SAPK2a(T106M)(h); 100 nM,3%
same,inhibition at 1 µM,SAPK2a(T106M)(h); 1000 nM,-3%
same,inhibition at 0.01 µM,TSSK4(h); 10 nM,-6%
same,inhibition at 0.1 µM,TSSK4(h); 100 nM,-10%
same,inhibition at 1 µM,TSSK4(h); 1000 nM,-9%
same,IC50,VEGFR2 (KDR); mean ± SD,0.382 µM
same,selectivity for FGFR1 over KDR,VEGFR2 (KDR); molecular kinase assays,over 760 fold
same,IC50,PBMC (CSF-2),> 1 µM
